Assay results: patent US8455665B2, “3-phenoxymethylpyrrolidine compounds” (Theravance, Inc., priority 2009, dated 2013)
Marks after values point to notes of the source that are not given here.

Tests used:
SERT = SERT (Homo sapiens, UniProt P31645); test: fluorescence-based serotonin uptake assay (Tsuruda et al. 2010); type: cell-based; conditions: serotonin reuptake inhibition, fluorescence-based assay (data indicated by an asterisk); for IC50: read-out: SERT pIC50 (converted)
NET = NET (Homo sapiens, UniProt P23975); test: fluorescence-based norepinephrine uptake assay (Tsuruda et al. 2010); type: cell-based; conditions: norepinephrine reuptake inhibition, fluorescence-based assay (data indicated by an asterisk); for IC50: read-out: NET pIC50 (converted)
NET, sequence (P23975 whole entry): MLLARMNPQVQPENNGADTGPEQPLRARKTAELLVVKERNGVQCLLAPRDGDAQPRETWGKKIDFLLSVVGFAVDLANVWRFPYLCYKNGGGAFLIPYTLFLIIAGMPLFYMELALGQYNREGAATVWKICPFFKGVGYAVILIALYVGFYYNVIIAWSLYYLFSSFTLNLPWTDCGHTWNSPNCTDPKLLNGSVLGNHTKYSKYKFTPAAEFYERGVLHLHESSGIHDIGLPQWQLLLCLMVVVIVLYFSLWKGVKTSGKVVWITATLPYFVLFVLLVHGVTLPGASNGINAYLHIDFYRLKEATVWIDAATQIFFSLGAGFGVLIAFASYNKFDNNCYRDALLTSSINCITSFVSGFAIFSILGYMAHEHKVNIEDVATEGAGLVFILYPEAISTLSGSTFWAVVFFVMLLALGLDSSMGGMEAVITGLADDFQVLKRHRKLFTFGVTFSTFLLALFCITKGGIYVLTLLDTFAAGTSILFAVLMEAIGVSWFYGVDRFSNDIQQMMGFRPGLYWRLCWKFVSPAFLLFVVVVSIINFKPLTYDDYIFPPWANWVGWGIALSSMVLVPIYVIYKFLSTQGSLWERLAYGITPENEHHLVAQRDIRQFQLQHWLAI

SERT, sequence (P31645 whole entry, species assumed): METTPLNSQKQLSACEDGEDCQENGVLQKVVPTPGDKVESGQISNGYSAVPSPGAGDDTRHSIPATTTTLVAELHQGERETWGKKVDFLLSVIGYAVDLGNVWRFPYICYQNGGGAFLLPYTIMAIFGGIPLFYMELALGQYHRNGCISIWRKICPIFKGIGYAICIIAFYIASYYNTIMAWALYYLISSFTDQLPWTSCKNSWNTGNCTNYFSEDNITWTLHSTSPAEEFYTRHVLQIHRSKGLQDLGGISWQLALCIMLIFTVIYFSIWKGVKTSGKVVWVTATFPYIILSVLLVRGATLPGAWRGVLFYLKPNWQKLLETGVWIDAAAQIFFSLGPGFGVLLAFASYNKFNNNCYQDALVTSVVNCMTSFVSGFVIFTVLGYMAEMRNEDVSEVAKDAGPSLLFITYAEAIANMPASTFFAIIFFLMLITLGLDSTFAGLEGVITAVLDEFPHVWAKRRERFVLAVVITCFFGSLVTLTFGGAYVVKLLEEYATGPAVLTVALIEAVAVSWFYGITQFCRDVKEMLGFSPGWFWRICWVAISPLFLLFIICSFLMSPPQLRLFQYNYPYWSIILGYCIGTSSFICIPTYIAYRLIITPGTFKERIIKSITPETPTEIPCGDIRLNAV

Row | SMILES | IC50 (SERT) [nM] | IC50 (NET) [nM] | SERT pIC50 (SERT) | NET pIC50 (NET)
1 | CC(C)OC[C@@H](Oc1c(Cl)cccc1Cl)[C@H]1CCNC1 [Example 9-28, (S)-3-[(S)-1-(2,6-Dichlorophenoxy)-2-isopropoxyethyl]pyrrolidine] | ≤ 100 | ≤ 10 | – | –
2 | CSC[C@@H](Oc1c(C)cc(Cl)cc1Cl)[C@H]1CCNC1.O=C(O)C(F)(F)F [Example 15-13] | – | – | ≧8.0* | ≧7.0*
3 | CCSC[C@@H](Oc1cccc(Cl)c1C)[C@H]1CCNC1.O=C(O)C(F)(F)F [Example 17-6] | – | – | ≧8.0* | ≧8.0*
4 | CCOC[C@H](Oc1cccc(Cl)c1C(F)(F)F)[C@H]1CCNC1 [Example 7-15, (S)-3-[(R)-1-(3-Chloro-2-trifluoromethylphenoxy)-2-ethoxyethyl]pyrrolidine] | ≤ 10 | ≤ 10 | – | –
5 | CCOC[C@H](Oc1ccc(F)cc1)[C@H]1CCNC1 [Example 7-5, (S)-3-[(R)-2-Ethoxy-1-(4-fluorophenoxy)ethyl]pyrrolidine] | ≤ 100 | ≤ 100 | – | –
6 | CCSC[C@H](Oc1ccc(Cl)cc1Cl)[C@H]1CCNC1.O=C(O)C(F)(F)F [Example 17-7] | – | – | ≧8.0* | ≧8.0*
7 | CSC[C@@H](Oc1ccc(F)c(F)c1F)[C@H]1CCNC1.O=C(O)C(F)(F)F [Example 15-14] | – | – | ≧7.0* | ≧8.0*
8 | CCOC[C@@H](Oc1cccc(F)c1Cl)[C@H]1CCNC1 [Example 7-10, (S)-3-[(S)-1-(2-Chloro-3-fluorophenoxy)-2-ethoxyethyl]pyrrolidine] | ≤ 10 | ≤ 10 | – | –
9 | CCOC[C@H](Oc1ccc(Cl)cc1C(F)(F)F)[C@H]1CCNC1 [Example 7-23, (S)-3-[(R)-1-(4-Chloro-2-trifluoromethylphenoxy)-2-ethoxyethyl]pyrrolidine] | ≤ 10 | ≤ 10 | – | –
10 | CCSC[C@H](Oc1ccc(Cl)c(Cl)c1)[C@H]1CCNC1.O=C(O)C(F)(F)F [Example 17-9] | – | – | ≧8.0* | ≧8.0*
11 | CCSC[C@@H](Oc1cccc(Cl)c1C(F)(F)F)[C@H]1CCNC1.O=C(O)C(F)(F)F [Example 17-14] | – | – | ≧8.0* | ≧7.0*
12 | CCOC[C@H](Oc1ccc(C(F)(F)F)cc1)[C@H]1CCNC1 [Example 7-6, (S)-3-[(R)-2-Ethoxy-1-(4-trifluoromethylphenoxy)ethyl]pyrrolidine] | ≤ 10 | ≤ 100 | – | –
13 | CC(C)OCC(Oc1cccc(Cl)c1C(F)(F)F)C1CCNC1 [Example 9-20, (S)-3-[(R)-1-(3-Chloro-2-trifluoromethyl-phenoxy)-2-isopropoxycthyl]pyrrolidine] | ≤ 100 | ≤ 10 | – | –
14 | CSC[C@H](Oc1ccc(Cl)cc1Cl)[C@H]1CCNC1.O=C(O)C(F)(F)F [Example 15-11] | – | – | ≧8.0* | ≧8.0*
15 | CCOC[C@H](Oc1ccc(Cl)cc1Cl)[C@H]1CCNC1 [Example 6, (S)-3-[(R)-1-(2,4-Dichlorophenoxy)-2-ethoxyethyl]pyrrolidine] | ≤ 10 | ≤ 10 | – | –
16 | CCOC[C@H](Oc1ccc(Cl)c(Cl)c1F)[C@H]1CCNC1 [Example 7-29, (S)-3-[(R)-1-(3,4-Dichloro-2-fluorophenoxy)-2-ethoxyethyl]pyrrolidine] | ≤ 10 | ≤ 10 | – | –
17 | CCOC[C@H](Oc1cccc(F)c1Cl)[C@H]1CCNC1 [Example 7-9, (S)-3-[(R)-1-(2-Chloro-3-fluorophenoxy)-2-ethoxyethyl]pyrrolidine] | ≤ 100 | ≤ 10 | – | –
18 | CC(C)OC[C@H](Oc1ccc(Cl)cc1Cl)[C@H]1CCNC1 [Example 8, (S)-3-[(R)-1-(2,4-Dichlorophenoxy)-2-isopropoxyethyl]pyrrolidine] | ≤ 10 | ≤ 10 | – | –
19 | Cc1cc(Cl)ccc1O[C@H](CO)[C@@H]1CCNC1 (stereo in doubt) [Example 1, (R)-2-(4-Chloro-2-methylphenoxy)-2-(S)-pyrrolidin-3-yl-ethanol] | ≤ 10 | ≤ 10 | – | –
20 | CC(C)OC[C@H](Oc1c(Cl)cccc1Cl)[C@H]1CCNC1 [Example 9-29, (S)-3-[(R)-1-(2,6-Dichlorophenoxy)-2-isopropoxyethyl]pyrrolidine] | ≤ 100 | ≤ 10 | – | –
21 | CC(C)SC[C@@H](Oc1cccc(Cl)c1C(F)(F)F)[C@H]1CCNC1 [Example 19-6, (S)-3-[(S)-1-(3-Chloro-2-trifluoromethylphenoxy)-2-isopropylsulfanylethyl]pyrrolidine] | ≤ 10 | ≤ 10 | – | –
22 | CCOC[C@@H](Oc1ccc(Cl)cc1Cl)[C@H]1CCNC1 [Example 7-17, (S)-3-[(S)-1-(2,4-Dichlorophenoxy)-2-ethoxyethyl]pyrrolidine] | ≤ 10 | ≤ 100 | – | –
23 | CC(C)SC[C@@H](Oc1cccc(F)c1Cl)[C@H]1CCNC1 [Example 19-4, (S)-3-[(S)-1-(2-Chloro-3-fluorophenoxy)-2-isopropylsulfanylethyl]pyrrolidine] | ≤ 10 | ≤ 10 | – | –

Row | SMILES | IC50 (SERT) [nM] | IC50 (NET) [nM] | SERT pIC50 (SERT) | NET pIC50 (NET)
24 | CCOC[C@H](Oc1cc(F)cc(Cl)c1)[C@H]1CCNC1 [Example 7-28, (S)-3-[(R)-1-(3-Chloro-5-fluorophenoxy)-2-ethoxyethyl]pyrrolidine] | ≤ 100 | ≤ 10 | – | –
25 | CCOC[C@H](Oc1ccc(Cl)cc1)[C@H]1CCNC1 [Example 7-4, (S)-3-[(R)-1-(4-Chlorophenoxy)-2-ethoxyethyl]pyrrolidine] | ≤ 10 | ≤ 10 | – | –
26 | CCOC[C@@H](Oc1cccc(Cl)c1C)[C@H]1CCNC1 [Example 7-14, (S)-3-[(S)-1-(3-Chloro-2-methylphenoxy)-2-ethoxyethyl]pyrrolidine] | ≤ 10 | ≤ 10 | – | –
27 | CCOC[C@H](Oc1cccc(Cl)c1C)[C@H]1CCNC1 [Example 7-13, (S)-3-[(R)-1-(3-Chloro-2-methylphenoxy)-2-ethoxyethyl]pyrrolidine] | ≤ 10 | ≤ 10 | – | –
28 | CCSC[C@H](Oc1ccc(Cl)cc1)[C@H]1CCNC1.O=C(O)C(F)(F)F [Example 17-10] | – | – | ≧8.0* | ≧8.0*
29 | CC(C)SC[C@H](Oc1cccc(Cl)c1C(F)(F)F)[C@H]1CCNC1 [Example 18, (S)-3-[(R)-1-(3-Chloro-2-trifluoromethylphenoxy)-2-isopropylsulfanylethyl]pyrrolidine] | ≤ 10 | ≤ 10 | – | –
30 | CCOC[C@H](Oc1ccc(Cl)c(Cl)c1)[C@H]1CCNC1 [Example 7-24, (S)-3-[(R)-1-(3,4-Dichlorophenoxy)-2-ethoxyethyl]pyrrolidine] | ≤ 10 | ≤ 100 | – | –
31 | Clc1cccc(OC(COCc2ccccc2)C2CCNC2)c1Cl [Example 10-2, ((S)-3-[(R)-2-Benzyloxy-1-(2,3-dichlorophenoxy)ethyl]pyrrolidine] | ≤ 10 | ≤ 10 | – | –
32 | CSC[C@@H](Oc1cccc(F)c1Cl)[C@H]1CCNC1.O=C(O)C(F)(F)F [Example 15-4] | – | – | ≧8.0* | ≧8.0*
33 | CCOC[C@H](Oc1c(Cl)cc(F)cc1Cl)[C@H]1CCNC1 [Example 7-31, (S)-3-[(R)-1-(2,6-Dichloro-4-fluorophenoxy)-2-ethoxyethyl]pyrrolidine] | ≤ 100 | ≤ 10 | – | –
34 | CC(C)SC[C@@H](Oc1cccc(Cl)c1Cl)[C@H]1CCNC1 [Example 19-2, (S)-3-[(S)-1-(2,3-Dichlorophenoxy)-2-isopropylsulfanylethyl]pyrrolidine] | ≤ 10 | ≤ 10 | – | –
35 | CC(C)OC[C@@H](Oc1cccc(Cl)c1Cl)[C@H]1CCNC1 [Example 9-8, (S)-3-[(S)-1-(2,3-Dichlorophenoxy)-2-isopropoxyethyl]pyrrolidine] | ≤ 10 | ≤ 10 | – | –
36 | CSC[C@@H](Oc1ccc(Cl)cc1Cl)[C@H]1CCNC1.O=C(O)C(F)(F)F [Example 15-12] | – | – | ≧8.0* | ≧7.0*
37 | CCSC[C@@H](Oc1ccc(Cl)cc1Cl)[C@H]1CCNC1.O=C(O)C(F)(F)F [Example 17-8] | – | – | ≧8.0* | ≧8.0*
38 | CSC[C@H](Oc1cccc(Cl)c1C(F)(F)F)[C@H]1CCNC1.O=C(O)C(F)(F)F [Example 15-7] | – | – | ≧8.0* | ≧8.0*
39 | CCOC[C@H](Oc1cccc(C(F)(F)F)c1)[C@H]1CCNC1 [Example 7-2, (S)-3-[(R)-2-Ethoxy-1-(3-trifluoromethylphenoxy)ethyl]pyrrolidine] | ≤ 100 | ≤ 100 | – | –
40 | CC(C)OC[C@@H](Oc1cccc(F)c1Cl)[C@H]1CCNC1 [Example 9-11, (S)-3-[(S)-1-(2-Chloro-3-fluorophenoxy)-2-isopropoxyethyl]pyrrolidine] | ≤ 10 | ≤ 10 | – | –
41 | CCOC[C@H](Oc1cccc(F)c1F)[C@H]1CCNC1 [Example 7-11, (S)-3-[(R)-1-(2,3-Difluorophenoxy)-2-ethoxyethyl]pyrrolidine] | ≤ 100 | ≤ 10 | – | –
42 | CSC[C@@H](Oc1cccc(Cl)c1C(F)(F)F)[C@H]1CCNC1.O=C(O)C(F)(F)F [Example 15-8] | – | – | ≧8.0* | ≧7.0*
43 | CCOC[C@H](Oc1c(Cl)ccc(Cl)c1F)[C@H]1CCNC1 [Example 7-32, (S)-3-[(R)-1-(3,6-Dichloro-2-fluorophenoxy)-2-ethoxyethyl]pyrrolidine] | ≤ 100 | ≤ 10 | – | –
44 | CSC[C@H](Oc1cccc(Cl)c1Cl)[C@H]1CCNC1.O=C(O)C(F)(F)F [Example 15-1] | – | – | ≧8.0* | ≧8.0*
45 | CCSC[C@H](Oc1cccc(F)c1Cl)[C@H]1CCNC1.O=C(O)C(F)(F)F [Example 17-3] | – | – | ≧8.0* | ≧8.0*
46 | CCOC[C@H](Oc1cccc(Cl)c1Cl)[C@H]1CCNC1 [Example 7-7, (S)-3-[(R)-1-(2,3-Dichlorophenoxy)-2-ethoxyethyl]pyrrolidine] | ≤ 10 | ≤ 10 | – | –
